US9597531B2, “Selective, lipophilic, and long-acting beta agonist monotherapeutic formulations and methods for the cosmetic treatment of adiposity and contour bulging” (NEOTHETICS, INC., priority 2010, dated 2017)
Read-outs that look alike come from different tables or passages of the source. Blank lines part the entries; values can stand above or below the compound they belong to.

What was measured:
[1] = tested on: inguinal fat pad; assay: Inguinal fat pad weight after SC injection into the rat inguinal fat pad (Example 6); format: in vivo, Sprague-Dawley rats
[2] = tested on: subcutaneous fat thickness; assay: Subcutaneous fat thickness by 2D-ultrasound (Example 7)
[3] = Pharmacokinetics and bioavailability in minipigs after SC administration (Example 8); format: in vivo, Gottingen minipig; conditions: for Tmax / AUC(0-inf) / Cmax / half-life: Gottingen, minipig, plasma, 4 ug/kg
Method: Plasma concentrations of salmeterol were monitored in a male and a female Gottingen minipig after SC administration of salmeterol xinafoate. SC dose of 4 μg/kg salmeterol xinafoate was administered as a single bolus dose. […] Samples were processed to plasma by centrifugation under refrigeration and stored frozen at approximately −70° C. (±15° C.) until analysis.
Other calculations were done using Microsoft Excel® XP. The bioanalytical and pharmacokinetic data were reported to 3 significant figures.

[4] = compared with albuterol; cited from earlier work
[5] = minipig, in vivo
[6] = SC single site 4 μg/kg, female 2-0623
[7] = SC single site 4 μg/kg, male 1-0771

absorption following SC administration ([3]; SC 4 μg/kg): rapidly absorbed | Tmax ([3]; both sexes, SC 4 μg/kg, male and female, read-out: Tmax values): 20 to 30 min
SMILES: OCc1cc(C(O)CNCCCCCCOCCCCc2ccccc2)ccc1O (stereo not shown) [salmeterol xinafoate]
change in inguinal fat pad weight ([1]; 0.1, 1, 10 or 100 μg SC into fat pad on 3 consecutive days, right vs left (vehicle) pad, FIG. 1): dose-related reduction in fat pad weight | staining and histological evaluation of the tissue ([1]; inguinal fat pad after SC injection, data not shown): reduction in fat cell number and size | evaluation of the injection sites ([2]; SC twice per week, 0.05, 0.5 or 5 μg per site): did not reveal any adverse reactions | fat thickness (2D-ultrasound) ([2]; SC twice per week, FIG. 2): dose-related changes in fat thickness | increase of fat thickness ([2]; highest dose (5 ng)): approximately 3% | reduction of total fat thickness ([2]; lowest doses (0.05 and 0.5 ng)): 7-9%

SMILES: OCc1cc(C(O)CNCCCCCCOCCCCc2ccccc2)ccc1O (racemic) [Salmeterol, ±2-(hydroxymethyl)-4-[1-hydroxy-2-[6-(4-phenylbutoxy)hexylamino]ethyl]-phenol]
lipophilicity relative to albuterol [4]: at least 10,000 times | salmeterol partition ratio (average plasma Cmax subcutaneous / average plasma Cmax intravenous) ([5]; both, Gottingen): 0.1 | Cmax ([5]; 0.004 ug/kg): 0 ng/mL | plasma concentrations observed ([5]; sc): Scarce or no plasma concentrations | AUC(0-inf) [3, 6]: 1.67 ng·h/mL | Cmax [3, 6]: 0.433 ng/mL | half-life [3, 6]: 494 min | Tmax ([3]; SC single site 4 μg/kg, female 2-0623, read-out: Tmax): 30 min | AUC(0-inf) [3, 7]: 2.26 ng·h/mL | Cmax [3, 7]: 0.564 ng/mL | half-life [3, 7]: 684 min | Tmax ([3]; SC single site 4 μg/kg, male 1-0771, read-out: Tmax): 20 min | tlast [3, 6]: 24.0 h | tlast [3, 7]: 24.0 h
